Reference: US10046022B2, “Synthetic peptide that increases radiosensitivity of tumor cells and use of same” (TOAGOSEI CO., LTD., priority 2015, dated 2018)
Peptide text beside a SMILES is read from it.

Test system: HeLaS3 cells
Test: Radiosensitizing activity: cell survival rate (Cell Counting Kit-8, WST-8) of HeLaS3 cells after peptide and X-ray irradiation
Format: cell-based, human
Conditions: peptide 50 μM, X-ray dose 0 Gy, compared with 0 μM peptide
Protocol: Radiosensitizing activity of the radiosensitizing synthetic peptide (Sample 1) obtained in Example 1 was evaluated by measuring cell survival rates during culturing after having irradiated test cells supplied with the radiosensitizing synthetic peptide with radiation (here, X-rays).
Human carcinoma-derived cells (HeLaS3 cells) and cells derived from normal human tissue (CCD-1079Sk cells) were used for the test cells. […] Details of the evaluation test are as indicated below.
First, a cultured cell line derived from human cervical cancer in the form of HeLaS3 cells (ATCC™ CCL2.2) were prepared for use as test cells derived from a human tumor. […]
Next, at the point 48 hours had elapsed following X-ray irradiation, the viability of the test cells (the number of viable cells) was measured using a commercially available chromogenic assay kit (Cell Counting Kit-8, Dojindo Molecular Technologies, Inc.). Namely, the number of viable cells was measured by colorimetry by quantifying the amount of water-soluble formazan in the medium by measuring using absorption spectrophotometry (measuring wavelength: 450 nm, reference wavelength: 650 nm) based on the principle that the tetrazolium salt in the reagent is reduced by enzyme activity of viable cells resulting in the formation of water-soluble formazan. […]

In the case of `N=C(N)NCCC[C@H](NC(=O)[C@H](CCCNC(=N)N)NC(=O)[C@H](CO)NC(=O)[C@H](CCCCN)NC(=O)[C@H](CO)NC(=O)[C@H](CCCCN)NC(=O)[C@@H](N)CS)C(=O)N[C@@H](CO)C(=O)N[C@@H](CS)C(=O)O` [Sample 1, CKSKSRRSC] (H-CKSKSRRSC-OH), the “cell survivability, Test Group 1 in comparison with Test Group 2 (cytotoxicity attributable to the peptide)” value was “slightly lower”.
